Data reported in PubChem BioAssay (NCI).
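Compound exposure: 48 hours, 5 concentrations, 96-well plates. At the GI50, growth is halved. At the TGI there is no net growth.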

Key:
Test in all cases: growth of human tumour cells (NCI), 48 h
786-0 renal = tested on: 786-0 renal
A498 renal = tested on: A498 renal
A549 NSCLC = tested on: A549 NSCLC
ACHN renal = tested on: ACHN renal
BT-549 breast = tested on: BT-549 breast
CAKI-1 renal = tested on: CAKI-1 renal
CCRF-CEM leukemia = tested on: CCRF-CEM leukemia
COLO 205 colon = tested on: COLO 205 colon
DU-145 prostate = tested on: DU-145 prostate
EKVX NSCLC = tested on: EKVX NSCLC
HCC-2998 colon = tested on: HCC-2998 colon
HCT-116 colon = tested on: HCT-116 colon
HCT-15 colon = tested on: HCT-15 colon
HL-60(TB) leukemia = tested on: HL-60(TB) leukemia
HOP-62 NSCLC = tested on: HOP-62 NSCLC
HOP-92 NSCLC = tested on: HOP-92 NSCLC
HS 578T breast = tested on: HS 578T breast
HT29 colon = tested on: HT29 colon
IGROV1 ovarian = tested on: IGROV1 ovarian
K-562 leukemia = tested on: K-562 leukemia
KM12 colon = tested on: KM12 colon
LOX IMVI melanoma = tested on: LOX IMVI melanoma
M14 melanoma = tested on: M14 melanoma
MALME-3M melanoma = tested on: MALME-3M melanoma
MCF7 breast = tested on: MCF7 breast
MDA-MB-231 breast = tested on: MDA-MB-231 breast
MDA-MB-435 = tested on: MDA-MB-435
MDA-MB-468 breast = tested on: MDA-MB-468 breast
MOLT-4 leukemia = tested on: MOLT-4 leukemia
NCI-H226 lung = tested on: NCI-H226 lung
NCI-H23 lung = tested on: NCI-H23 lung
NCI-H460 lung = tested on: NCI-H460 lung
NCI-H522 lung = tested on: NCI-H522 lung
NCI/ADR-RES ovarian = tested on: NCI/ADR-RES ovarian
OVCAR-3 ovarian = tested on: OVCAR-3 ovarian
OVCAR-4 ovarian = tested on: OVCAR-4 ovarian
OVCAR-5 ovarian = tested on: OVCAR-5 ovarian
OVCAR-8 ovarian = tested on: OVCAR-8 ovarian
PC-3 prostate = tested on: PC-3 prostate
RPMI-8226 leukemia = tested on: RPMI-8226 leukemia
RXF 393 renal = tested on: RXF 393 renal
SF-268 CNS = tested on: SF-268 CNS
SF-295 CNS = tested on: SF-295 CNS
SF-539 CNS = tested on: SF-539 CNS
SK-MEL-2 melanoma = tested on: SK-MEL-2 melanoma
SK-MEL-28 melanoma = tested on: SK-MEL-28 melanoma
SK-MEL-5 melanoma = tested on: SK-MEL-5 melanoma
SK-OV-3 ovarian = tested on: SK-OV-3 ovarian
SN12C renal = tested on: SN12C renal
SNB-19 CNS = tested on: SNB-19 CNS
SNB-75 CNS = tested on: SNB-75 CNS
SR leukemia = tested on: SR leukemia
SW-620 colon = tested on: SW-620 colon
T-47D breast = tested on: T-47D breast
TK-10 renal = tested on: TK-10 renal
U251 CNS = tested on: U251 CNS
UACC-257 melanoma = tested on: UACC-257 melanoma
UACC-62 melanoma = tested on: UACC-62 melanoma
UO-31 renal = tested on: UO-31 renal

CCOC(=O)c1ccc(NC(=O)CSC(CC(=O)c2sc(Nc3ccccn3)nc2C)c2ccccc2F)cc1 (stereo not drawn)
GI50 (786-0 renal): 24.8 µM | TGI (786-0 renal): > 100 µM | GI50 (A498 renal): 69.2 µM | TGI (A498 renal): > 100 µM | GI50 (A549 NSCLC): 75.7 µM | TGI (A549 NSCLC): > 100 µM | GI50 (ACHN renal): 45.6 µM | TGI (ACHN renal): > 100 µM | GI50 (BT-549 breast): 14.7 µM | TGI (BT-549 breast): 81.5 µM | GI50 (CAKI-1 renal): 11.5 µM | TGI (CAKI-1 renal): > 100 µM | GI50 (CCRF-CEM leukemia): 18.6 µM | TGI (CCRF-CEM leukemia): > 100 µM | GI50 (COLO 205 colon): > 100 µM | TGI (COLO 205 colon): > 100 µM | GI50 (DU-145 prostate): 67.2 µM | TGI (DU-145 prostate): > 100 µM | GI50 (EKVX NSCLC): 19 µM | TGI (EKVX NSCLC): > 100 µM | GI50 (HCC-2998 colon): 23.1 µM | TGI (HCC-2998 colon): > 100 µM | GI50 (HCT-116 colon): 23 µM | TGI (HCT-116 colon): > 100 µM | GI50 (HCT-15 colon): 25.8 µM | TGI (HCT-15 colon): > 100 µM | GI50 (HL-60(TB) leukemia): 21.4 µM | TGI (HL-60(TB) leukemia): > 100 µM | GI50 (HOP-62 NSCLC): 37.5 µM | TGI (HOP-62 NSCLC): > 100 µM | GI50 (HOP-92 NSCLC): 12.5 µM | TGI (HOP-92 NSCLC): > 100 µM | GI50 (HS 578T breast): 14.9 µM | TGI (HS 578T breast): 94.8 µM | GI50 (HT29 colon): 58.3 µM | TGI (HT29 colon): > 100 µM | GI50 (IGROV1 ovarian): 12.1 µM | TGI (IGROV1 ovarian): 83.3 µM | GI50 (K-562 leukemia): 30.4 µM | TGI (K-562 leukemia): > 100 µM | GI50 (KM12 colon): 55.6 µM | TGI (KM12 colon): > 100 µM | GI50 (LOX IMVI melanoma): 0.312 µM | TGI (LOX IMVI melanoma): > 100 µM | GI50 (M14 melanoma): 19.4 µM | TGI (M14 melanoma): > 100 µM | GI50 (MALME-3M melanoma): 25.4 µM | TGI (MALME-3M melanoma): > 100 µM | GI50 (MCF7 breast): 15.4 µM | TGI (MCF7 breast): > 100 µM | GI50 (MDA-MB-231 breast): 19.3 µM | TGI (MDA-MB-231 breast): > 100 µM | GI50 (MDA-MB-435): 26.3 µM | TGI (MDA-MB-435): > 100 µM | GI50 (MDA-MB-468 breast): 4.24 µM | TGI (MDA-MB-468 breast): 44.3 µM | GI50 (MOLT-4 leukemia): 32.2 µM | TGI (MOLT-4 leukemia): > 100 µM | GI50 (NCI-H226 lung): 2.52 µM | TGI (NCI-H226 lung): 85.9 µM | GI50 (NCI-H23 lung): 22.7 µM | TGI (NCI-H23 lung): > 100 µM | GI50 (NCI-H460 lung): 31.2 µM | TGI (NCI-H460 lung): > 100 µM | GI50 (NCI-H522 lung): 21.6 µM | TGI (NCI-H522 lung): > 100 µM | GI50 (NCI/ADR-RES ovarian): 24.1 µM | TGI (NCI/ADR-RES ovarian): > 100 µM | GI50 (OVCAR-3 ovarian): 31.7 µM | TGI (OVCAR-3 ovarian): > 100 µM | GI50 (OVCAR-4 ovarian): 66.1 µM | TGI (OVCAR-4 ovarian): > 100 µM | GI50 (OVCAR-5 ovarian): 74.4 µM | TGI (OVCAR-5 ovarian): > 100 µM | GI50 (OVCAR-8 ovarian): 53.6 µM | TGI (OVCAR-8 ovarian): > 100 µM | GI50 (PC-3 prostate): 23.8 µM | TGI (PC-3 prostate): > 100 µM | GI50 (RPMI-8226 leukemia): 8.29 µM | TGI (RPMI-8226 leukemia): > 100 µM | GI50 (RXF 393 renal): 2.59 µM | TGI (RXF 393 renal): 23.5 µM | GI50 (SF-268 CNS): 43.1 µM | TGI (SF-268 CNS): > 100 µM | GI50 (SF-295 CNS): 32.2 µM | TGI (SF-295 CNS): > 100 µM | GI50 (SF-539 CNS): 32.5 µM | TGI (SF-539 CNS): > 100 µM | GI50 (SK-MEL-2 melanoma): 44.9 µM | TGI (SK-MEL-2 melanoma): > 100 µM | GI50 (SK-MEL-28 melanoma): 38.7 µM | TGI (SK-MEL-28 melanoma): > 100 µM | GI50 (SK-MEL-5 melanoma): 18.6 µM | TGI (SK-MEL-5 melanoma): 82 µM | GI50 (SK-OV-3 ovarian): 26 µM | TGI (SK-OV-3 ovarian): > 100 µM | GI50 (SN12C renal): 28 µM | TGI (SN12C renal): > 100 µM | GI50 (SNB-19 CNS): 36.9 µM | TGI (SNB-19 CNS): > 100 µM | GI50 (SNB-75 CNS): 3.59 µM | TGI (SNB-75 CNS): 48.8 µM | GI50 (SR leukemia): 24.1 µM | TGI (SR leukemia): > 100 µM | GI50 (SW-620 colon): 75.3 µM | TGI (SW-620 colon): > 100 µM | GI50 (T-47D breast): 18 µM | TGI (T-47D breast): > 100 µM | GI50 (TK-10 renal): 82.3 µM | TGI (TK-10 renal): > 100 µM | GI50 (U251 CNS): 47.8 µM | TGI (U251 CNS): > 100 µM | GI50 (UACC-257 melanoma): 38.4 µM | TGI (UACC-257 melanoma): > 100 µM | GI50 (UACC-62 melanoma): 16.1 µM | TGI (UACC-62 melanoma): > 100 µM | GI50 (UO-31 renal): 3.19 µM | TGI (UO-31 renal): > 100 µM
